Assay results: US6509358B2, “Piperidino-phenyl amino squarate and thiadiazole dioxide beta-3 adrenergic receptor agonists” (Wyeth, priority 2000, dated 2003)

How the values were obtained:
[1] = target: T1, human β3-AR (Homo sapiens, UniProt P13945); assay: cAMP accumulation (SPA) in CHO cells transfected with human β3-AR; assay type: cell-based; settings: for EC50: CHO cells transfected with human β3-AR, cAMP, 30 min at 37° C., 10^-9 M to 10^-5 M; for IA(β3): maximal response of compound relative to maximal response of isoproterenol at 10^-5 M
T1 construct: Full-length β3-AR clones (402 amino acids) containing the last 6 amino acids of hβ3-AR; expressed in transfected cells; host or cells: CHO cells
Procedure: Binding to the receptors was measured in Chinese Hamster ovary (CHO) cells that were transfected with β1-, β2-, and β3-AR's. The following briefly summarizes the procedures used and results obtained. Cloning of Human β3-AR Genomic DNA: cDNA was constructed by ligating four polymerase chain reaction (PCR) products using the following primers: an ATG-Narl fragment, sense primer [NT] and anti-sense primer [NT]; a […] fragment, [NT] as sense and [NT] as anti-sense primer; an […] fragment, sense primer [NT] and anti-sense primer [NT] and a Styl-TAG fragment, with sense primer [NT] and anti-sense primer [NT]. The corresponding primer sequences are described in Mantzoros, C. S., et.al., Diabetes, 1996, 45, 909-914. The four fragments are ligated into a pUC 18 plasmid (Gibco-BRL) and sequenced. Full-length β3-AR clones (402 amino acids) containing the last 6 amino acids of hβ3-AR are prepared with the β3-β[…]3 from ATTC. Binding Procedure: Clones expressing receptor levels of 70 to 110 fmoles/mg protein were used in the test procedures. CHO cells were grown in 24-well tissue culture plates in Dulbecco's Modified Eagle Media with 10% fetal bovine serum, MEM non-essential amino acids, Penicillin-Streptomycin and Geneticin. On the day of test procedure, growth medium was replaced with preincubation media (Dulbecco's Modified Eagle Media) and incubated for 30 minutes at 37° C. […] Isoproterenol (10^-5 M) was used as an internal standard for comparison of activity. Cells were incubated at 37° C. on a rocker for 30 min with the β3-AR transfected cells and 15 min with β1-AR and β2-AR transfected cells. Incubation was stopped by the addition of 0.2N HCl and the acid was neutralized with 2.5N NaOH. The plates, containing the cells and neutralized media, were stored at -20 ° C. until ready to test for cAMP using the SPA test kit (Amersham). Data Analysis and Results: Data collected from the SPA test procedure were analyzed as percent of the maximal isoproterenol response at 10^-5 M. Activity curves were plotted using the SAS statistical and graphics software. […] IA=% activity compound % activity isoproterenol

T1 sequence (P13945 whole entry): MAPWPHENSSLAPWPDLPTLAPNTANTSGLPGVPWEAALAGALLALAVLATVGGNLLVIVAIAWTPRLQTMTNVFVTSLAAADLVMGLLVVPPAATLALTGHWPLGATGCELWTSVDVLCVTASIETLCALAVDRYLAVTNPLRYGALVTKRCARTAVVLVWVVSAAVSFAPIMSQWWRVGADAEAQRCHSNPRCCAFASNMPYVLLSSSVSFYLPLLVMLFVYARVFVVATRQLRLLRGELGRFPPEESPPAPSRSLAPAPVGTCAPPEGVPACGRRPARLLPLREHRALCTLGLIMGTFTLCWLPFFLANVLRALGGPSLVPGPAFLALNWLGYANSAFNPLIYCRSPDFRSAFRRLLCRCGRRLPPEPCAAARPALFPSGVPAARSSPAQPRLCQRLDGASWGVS

Row | SMILES | melting point | EC50 [1] [µM] | IA(β3) [1]
1 | COC(=O)[C@@H](Cc1ccccc1)Nc1c(Nc2ccc(N3CCC(NC[C@H](O)c4ccc(O)c(NS(C)(=O)=O)c4)CC3)cc2)c(=O)c1=O (hydrate or solvate) [Example 2, Methyl (2R)-2-{[2-(4-{4-[((2R)-2-hydroxy-2-{4-hydroxy-3-[(methylsulfonyl)amino]phenyl}ethyl)amino]piperidin-1-yl}anilino)-3,4-dioxocyclobut-1-en-1-yl]amino}-3-phenylpropanoate] | 240 °C (dec.) | – | –
2 | COC(=O)C(Cc1ccccc1)NC1=NS(=O)(=O)N=C1Nc1ccc(N2CCC(NCC(O)c3ccc(O)c(NS(C)(=O)=O)c3)CC2)cc1 (hydrate or solvate) [Example 6, Methyl 2-{[4-(4-{4-[((2R)-2-hydroxy-2-{4-hydroxy-3-[(methylsulfonyl)amino]phenyl}ethyl)amino]piperidin-1-yl}anilino)-1,1-dioxido-1,2,5-thiadiazol-3-yl]amino}-3-yl]amino}-3-phenylpropanoate] | 210 °C (dec.) | – | –
3 | COc1ccc(CCNC2=NS(=O)(=O)N=C2Nc2ccc(N3CCC(NC[C@H](O)COc4ccc(O)cc4)CC3)cc2)cc1 [Example 1] | – | 0.633 | 0.69
4 | COC(=O)[C@@H](Cc1ccccc1)Nc1c(Nc2ccc(N3CCC(NC[C@H](O)c4ccc(O)c(NS(C)(=O)=O)c4)CC3)cc2)c(=O)c1=O [Example 2, Methyl (2R)-2-{[2-(4-{4-[((2R)-2-hydroxy-2-{4-hydroxy-3-[(methylsulfonyl)amino]phenyl}ethyl)amino]piperidin-1-yl}anilino)-3,4-dioxocyclobut-1-en-1-yl]amino}-3-phenylpropanoate] | – | 0.2 | 0.80
5 | COC(=O)CNC1=NS(=O)(=O)N=C1Nc1ccc(N2CCC(NC[C@H](O)c3ccc(O)c(NS(C)(=O)=O)c3)CC2)cc1 [Example 3, Methyl {[4-(4-{4-[((2R)-2-hydroxy-2-{4-hydroxy-3-[(methylsulfonyl)amino]phenyl}ethyl)amino]piperidin-1-yl}anilino)-1,1-dioxido1,2,5-thiadiazol-3-yl]amino}acetate] | 120 °C (dec.) | 0.099 | 0.40
6 | CCCCCCCCNC1=NS(=O)(=O)N=C1Nc1ccc(N2CCC(NC[C@H](O)COc3ccc(O)cc3)CC2)cc1 [Example 4, 4-((2S)-2-Hydroxy-3-{1-[4-(4-octylamino-1,1-dioxo-1H-1.lambda(6)-[1,2,5]thiadiazol-3ylamimo)-phenyl]-piperidin-4-ylamino}-propoxy)-phenol] | 198 to 204 °C | 0.004 | 0.96
7 | O=S1(=O)N=C(NCCc2ccc(F)cc2)C(Nc2ccc(N3CCC(NC[C@H](O)COc4ccc(O)cc4)CC3)cc2)=N1 [Example 5, 4-((2S)-3-[1-(4-{4-[2-(4-Fluoro-phenyl)-ethylamino]-1,1-dioxo-1H-1.lambda(6).-[1,2,5]thiadiazol-3-ylamino}-phenyl)-piperidin-4-ylamino]-2-hydroxy-propoxy}-phenol] | – | 0.008 | 1.0
8 | COC(=O)C(Cc1ccccc1)NC1=NS(=O)(=O)N=C1Nc1ccc(N2CCC(NCC(O)c3ccc(O)c(NS(C)(=O)=O)c3)CC2)cc1 [Example 6, Methyl 2-{[4-(4-{4-[((2R)-2-hydroxy-2-{4-hydroxy-3-[(methylsulfonyl)amino]phenyl}ethyl)amino]piperidin-1-yl}anilino)-1,1-dioxido-1,2,5-thiadiazol-3-yl]amino}-3-yl]amino}-3-phenylpropanoate] | – | 0.042 | 0.9
